Measurements from paper PMC3377626, “Role of mprF1 and mprF2 in the Pathogenicity of Enterococcus faecalis” (PLoS ONE, 2012).
Converted amounts (≈) assume the structure as drawn. No end group written: not given here.

What was measured:
12030ΔmprF1 = test: MIC by E-test; type: cell-based, Enterococcus faecalis; conditions: mprF1 deletion mutant
Method: (§1) The minimal inhibitory concentration (MIC) of polymyxin B, nisin, HBD-3, and colistin was determined in serial dilution with a modified NCCLS method. Experiments were performed in TSB broth in 96-well microtiter tissue culture plates (Greiner). Wells were inoculated with 50-µl volumes of a suspension containing approximately 1×10^6 CFU/ml of the test organism, and concentrations were confirmed by enumeration of CFUs after serial dilution. Microtiter plates were incubated overnight at 37°C, and the MICs were defined as the lowest concentration at which visible growth was inhibited. The MIC against daptomycin was determined by E-test according to standard laboratory procedures.

[1] = tested on: 12030ΔmprF2 CM (knock-in); test: MIC by E-test; type: cell-based, Enterococcus faecalis; conditions: mprF2 mutant complemented by knock-in
Method: as §1

12030ΔmprF2 = test: MIC by E-test; type: cell-based, Enterococcus faecalis; conditions: mprF2 deletion mutant
Method: as §1

E. faecalis 12030 [2] = test: MIC by E-test; type: cell-based, Enterococcus faecalis; conditions: wild-type strain
Method: as §1

E. faecalis 12030 ΔmprF2 = test: MIC by serial dilution (modified NCCLS method); type: cell-based, Enterococcus faecalis; conditions: for Minimal inhibotory concentration: mprF2 (EF_1027) deletion mutant, serial dilution in TSB broth, 96-well plates, approx. 1×10^6 CFU/ml, overnight at 37°C, lowest concentration at which visible growth was inhibited; for fold decreased MIC of 12030ΔmprF2 compared to the wild-type strain: ratio of MIC of wild type E. faecalis 12030 to MIC of 12030ΔmprF2, from Table 1
Method: as §1

E. faecalis 12030 [3] = test: MIC by serial dilution (modified NCCLS method); type: cell-based, Enterococcus faecalis; conditions: wild type strain; serial dilution in TSB broth, 96-well plates, approx. 1×10^6 CFU/ml, overnight at 37°C; lowest concentration at which visible growth was inhibited
Method: as §1

E. faecalis 12030 ΔmprF1 = test: MIC by serial dilution (modified NCCLS method); type: cell-based, Enterococcus faecalis; conditions: mprF1 (EF_0031) deletion mutant; serial dilution in TSB broth, 96-well plates, approx. 1×10^6 CFU/ml, overnight at 37°C; lowest concentration at which visible growth was inhibited
Method: as §1

[4] = tested on: E. faecalis 12030 ΔmprF2 CM; test: MIC by serial dilution (modified NCCLS method); type: cell-based, Enterococcus faecalis; conditions: mprF2 mutant complemented by knock-in of mprF2; serial dilution in TSB broth, 96-well plates, approx. 1×10^6 CFU/ml, overnight at 37°C; lowest concentration at which visible growth was inhibited
Method: as §1

S. aureus = S. aureus MprF mutant versus wild type; cited from earlier work
Excerpt: In contrast to S. aureus, however, there was no effect on ...

Molecule | MIC (12030ΔmprF1) [µg/mL] | MIC [1] [µg/mL] | MIC (12030ΔmprF2) [µg/mL] | MIC (E. faecalis 12030 [2]) [µg/mL] | Minimal inhibotory concentration (E. faecalis 12030 ΔmprF2) [µg/mL] | fold decreased MIC of 12030ΔmprF2 compared to the wild-type strain (E. faecalis 12030 ΔmprF2) [fold] | Minimal inhibotory concentration (E. faecalis 12030 [3]) [µg/mL] | Minimal inhibotory concentration (E. faecalis 12030 ΔmprF1) [µg/mL] | Minimal inhibotory concentration [4] [µg/mL] | fold drop of the MIC on mutation of MprF in S. aureus (S. aureus) [fold]
CCCCCCCCCC(=O)N[C@@H](Cc1c[nH]c2ccccc12)C(=O)N[C@H](CC(N)=O)C(=O)N[C@@H](CC(=O)O)C(=O)N[C@@H]1C(=O)NCC(=O)N[C@@H](CCCN)C(=O)N[C@@H](CC(=O)O)C(=O)N[C@H](C)C(=O)N[C@@H](CC(=O)O)C(=O)NCC(=O)N[C@H](CO)C(=O)N[C@@H]([C@H](C)CC(=O)O)C(=O)N[C@@H](CC(=O)c2ccccc2N)C(=O)O[C@@H]1C [daptomycin] | 0.25 (≈ 0.154 µM) | 0.25 (≈ 0.154 µM) | 0.25 (≈ 0.154 µM) | 0.19 (≈ 0.117 µM) | – | – | – | – | – | –
HBD-3: cationic antimicrobial peptide (CAMP) (GIINTLQKYYCRVRGGRCAVLSCLPKEEQIGKCSTRGRKCCRRKK; ends and bridges not checked; cysteine pairing not given here; UniProt P81534 23-67, looked up) | – | – | – | – | 128 | > 4 | >512 | – | – | –
colistin | – | – | – | – | 2048 | 2 | 4096 | – | – | –
nisin (ITSISLCTPGCKTGALMGCNMKTATCHCSIHVSK; cysteine pairing not given here; also: lantibiotic nisin-A, lanthionine/dehydro residues not placed; UniProt P13068 24-57, looked up) [cationic antimicrobial peptide (CAMP)] | – | – | – | – | 1 | 4 | 4 | 4 | 4 | 28
polymyxin B | – | – | – | – | 256 | 4 | 1024 | – | – | –
